Test results reported in patent US20100267561A1, “HERBICIDAL PYRIDAZINONE DERIVATIVES” (priority 2007, published 2010).

Experiments:
Assay in all cases: Test A pre-/postemergence plant response
Assay type in all cases: in vivo
[1] = test system: barnyardgrass (Echinochloa crus-galli)
Description: (§1) Seeds of species selected from barnyardgrass (Echinochloa crus-galli), large crabgrass (Digitaria sanguinalis), giant foxtail (Setaria faberi), blackgrass (Alopecurus myosuroides), canarygrass (Phalaris minor), morningglory (Ipomoea coccinea), pigweed (Amaranthus retroflexus), velvetleaf (Abutilon theophrasti), wheat (Triticum aestivum), and corn (Zea mays) were planted into a blend of loam soil and sand and treated preemergence with a directed soil spray using test chemicals formulated in a non-phytotoxic solvent mixture which included a surfactant. At the same time these species were also treated with postemergence applications of test chemicals formulated in the same manner.
(§2) Plants ranged in height from 2 to 10 cm and were in the one- to two-leaf stage for the postemergence treatment. Treated plants and untreated controls were maintained in a greenhouse for approximately 10 days, after which time all treated plants were compared to untreated controls and visually evaluated for injury. Plant response ratings, summarized in Table A, are based on a 0 to 100 scale where 0 is no effect and 100 is complete control. A dash (-) response means no test results.

corn (Zea mays) = test system: corn (Zea mays)
Description: as §1, §2

[2] = test system: giant foxtail (Setaria faberi)
Description: as §1, §2

[3] = test system: large crabgrass (Digitaria sanguinalis)
Description: as §1, §2

[4] = test system: morningglory (Ipomoea coccinea)
Description: as §1, §2

[5] = test system: pigweed (Amaranthus retroflexus)
Description: as §1, §2

[6] = test system: velvetleaf (Abutilon theophrasti)
Description: as §1, §2

[7] = test system: wheat (Triticum aestivum)
Description: as §1, §2

[8] = Postemergence, 125 g ai/ha, 0 to 100 scale, 0 no effect, 100 complete control
[9] = Postemergence, 500 g ai/ha, 0 to 100 scale, 0 no effect, 100 complete control
[10] = Preemergence, 125 g ai/ha, 0 to 100 scale (0 no effect, 100 complete control)
[11] = Preemergence, 500 g ai/ha, 0 to 100 scale (0 no effect, 100 complete control)

How did the “Plant response rating, Barnyardgrass” value [1, 8] turn out when CSc1cc(-c2ccc(F)cc2)nn1-c1c(O)cnn(C)c1=O [Compound 23] was run?
The value was 0.

And the “Plant response rating, Barnyardgrass” value [1, 9]?
Its value is 70.

What about the “Plant response rating, Barnyardgrass” value [1, 10] of the same compound?
The value was 0.

What about the “Plant response rating, Barnyardgrass” value [1, 11] of the same compound?
The value was 10.

What about the “Plant response rating, Corn” value (corn (Zea mays); [8]) of the same compound?
The value was 0.

What about the “Plant response rating, Corn” value (corn (Zea mays); [9]) of the same compound?
The value was 20.

And the “Plant response rating, Corn” value (corn (Zea mays); [10])?
Its value is 0.

What about the “Plant response rating, Corn” value (corn (Zea mays); [11]) of the same compound?
Its value is 20.

And the “Plant response rating, Foxtail, Giant” value [2, 8]?
Its value is 20.

And the “Plant response rating, Foxtail, Giant” value [2, 9]?
The value was 80.

What about the “Plant response rating, Foxtail, Giant” value [2, 10] of the same compound?
The value was 20.

What about the “Plant response rating, Foxtail, Giant” value [2, 11] of the same compound?
Its value is 70.

What about the “Plant response rating, Crabgrass, Large” value [3, 8] of the same compound?
The value was 0.

And the “Plant response rating, Crabgrass, Large” value [3, 9]?
The value was 20.

What about the “Plant response rating, Crabgrass, Large” value [3, 10] of the same compound?
The value was 0.

And the “Plant response rating, Crabgrass, Large” value [3, 11]?
The value was 0.

And the “Plant response rating, Morningglory” value [4, 8]?
The value was 0.

What about the “Plant response rating, Morningglory” value [4, 9] of the same compound?
Its value is 0.

What about the “Plant response rating, Morningglory” value [4, 10] of the same compound?
The value was 0.

And the “Plant response rating, Morningglory” value [4, 11]?
Its value is 0.

What about the “Plant response rating, Pigweed” value [5, 8] of the same compound?
Its value is 0.

And the “Plant response rating, Pigweed” value [5, 9]?
Its value is 0.

What about the “Plant response rating, Pigweed” value [5, 10] of the same compound?
Its value is 0.

What about the “Plant response rating, Pigweed” value [5, 11] of the same compound?
The value was 0.

And the “Plant response rating, Velvetleaf” value [6, 8]?
Its value is 0.

And the “Plant response rating, Velvetleaf” value [6, 9]?
Its value is 0.

And the “Plant response rating, Velvetleaf” value [6, 10]?
Its value is 0.

What about the “Plant response rating, Velvetleaf” value [6, 11] of the same compound?
The value was 0.

And the “Plant response rating, Wheat” value [7, 8]?
Its value is 0.

And the “Plant response rating, Wheat” value [7, 9]?
Its value is 0.

What about the “Plant response rating, Wheat” value [7, 10] of the same compound?
The value was 0.

And the “Plant response rating, Wheat” value [7, 11]?
The value was 0.
